Measured values: the supplement of paper PMC10949913
Several values for one entry are separate records, joined by “and”; a condition that tells them apart may be missing. Identical values can stand only once.

How the values were obtained:
Settings in all cases: 48 h
CU-ACC1 [1] = experiment: AC50 viability; higher = less potent
Method in brief: (§1)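 Concentration-response curves were fitted to obtain AC50 and area under the curve, keeping inhibitory or non-responding curve classes only. Data came from CellTiter-Glo luminescence, normalised per plate to vehicle and empty-well controls, in three adrenocortical carcinoma cell lines. These were treated in 1,536-well plates with library compounds at 11 concentrations and read after 48 h.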

CU-ACC2 [2] = experiment: AC50 viability; higher = less potent
Method in brief: as §1

NCI-H295R [3] = experiment: AC50 viability; higher = less potent
Method in brief: as §1

CU-ACC1 [4] = experiment: area under concentration-response curve (viability) (AUC (a.u.)); higher = less active
Method in brief: as §1

CU-ACC2 [5] = experiment: as above
Method in brief: as §1

NCI-H295R [6] = experiment: as above
Method in brief: as §1

Structure (SMILES)	AC50 viability (CU-ACC1 [1])	AC50 viability (CU-ACC2 [2])	AC50 viability (NCI-H295R [3])	area under concentration-response curve (CU-ACC1 [4])	area under concentration-response curve (CU-ACC2 [5])	area under concentration-response curve (NCI-H295R [6])
CO[C@@H](C)Cn1c(=O)n(C)c2cnc3ccc(-c4cncc(C(C)(C)O)c4)cc3c21	0.742 µM	0.661 µM	1.05 µM	398	419	445
Clc1ccc(C2(c3ccc(-c4cn[nH]c4)cc3)CCNCC2)cc1	18.6 µM	23.5 µM	18.6 µM	419	423	399
Cc1cccc(Nc2nc(N[C@@H]3CCCC[C@@H]3N)ncc2C(N)=O)c1	26.3 µM	26.3 µM	18.6 µM	476	546	496
COCCn1c2c([n+](Cc3cnccn3)c1C)C(=O)c1ccccc1C2=O	1.66 µM	0.132 µM	3.32 µM	246	278	341
COc1ccc(-c2cc(C(O)C3CCCCN3)c3ccccc3n2)cc1 (stereo unspecified)	10.5 µM	14.8 µM	7.42 µM	432	377	455
CC(C)N(CCCNC(=O)Nc1ccc(C(C)(C)C)cc1)C[C@H]1O[C@@H](n2cc(Br)c3c(N)ncnc32)[C@H](O)[C@@H]1O	16.6 µM	16.6 µM	16.6 µM	438	506	464
C[C@@H]1COCCN1c1cc(-c2ccnn2C)c2ccnc(-c3ccn[nH]3)c2n1	0.742 µM	6.61 µM	1.32 µM	388	399	415
CC(C)C[C@@H](C=O)NC(=O)[C@H](CC(C)C)NC(=O)[C@H](CC(C)C)NC(=O)OCc1ccccc1	1.48 µM	0.934 µM	0.742 µM	374	409	407
CN[C@H]1CC[C@@H](c2ccc(Cl)c(Cl)c2)c2ccccc21	10.5 µM	16.6 µM	11.8 µM	386	438	394
O=C1NCCc2[nH]c(-c3ccncc3)cc21	3.32 µM	1.86 µM	4.68 µM	338	406	423
C=C1CCC2[C@](C)(CO)C(O)CC[C@]2(C)C1C/C=C1/C(=O)OCC1O (stereo partly specified)	18.6 µM	11.8 µM	20.9 µM	472	504	445
CC[C@@]1(O)C(=O)OC/C2=C1/C=C3\N(CC4=C5[C@@H](N)CCC6=C5C(=CC(=C6C)F)N=C34)C2=O	2.09 µM	2.35 µM	3.72 µM	388	486	437
NC(=O)/C(=C/n1cnc(-c2cc(C(F)(F)F)cc(C(F)(F)F)c2)n1)c1cncnc1	11.8 µM	5.9 µM	9.34 µM	322	459	438
C[S+](=O)([O-])N1CCC(NC(=O)c2[nH]ncc2NC(=O)c2c(Cl)cccc2Cl)CC1	7.42 µM	2.63 µM	14.8 µM	428	488	426
CC/1=C/C[C@]23O[C@@]2(C)CC[C@@H]4[C@H](OC(=O)C4=C)[C@@H]13	14.8 µM	16.6 µM	18.6 µM	447	509	435
C=CC(=O)Nc1cccc(Nc2nc(Nc3ccc(NC4CN(CCF)C4)cc3OC)ncc2C(F)(F)F)c1	9.34 µM	14.8 µM	8.33 µM	398	386	446
CC(C)(O)CC(=O)NCCn1ccc2ncnc(Nc3ccc(Oc4cccc(C(F)(F)F)c4)c(Cl)c3)c21	20.9 µM	23.5 µM	20.9 µM	465	472	443
Cc1ccc(C(N)=O)cc1Nc1nccc(-c2cn(C(C)C)c3cnccc23)n1	20.9 µM	8.33 µM	16.6 µM	446	530	522
COc1cccc2c1C(=O)c1c(O)c3c(c(O)c1C2=O)C[C@@](O)(C(C)=O)C[C@@H]3O[C@H]1C[C@H](N)[C@H](O)[C@H](C)O1	2.95 µM	2.35 µM	4.68 µM	305	350	369
Cc1cc(Nc2cc(NC(=O)c3c(Cl)cccc3Cl)ccn2)nc(N)n1	11.8 µM	5.9 µM	13.2 µM	457	522	439
COC1=C(OC)C=C\2C(=C1)C(=O)N(CCCNCCO)\C3=C2C(=O)C4=C3C=C5OCOC5=C4	5.9 µM	4.17 µM	7.42 µM	364	396	407

Structure (SMILES)	AC50 viability (CU-ACC1 [1])	AC50 viability (CU-ACC2 [2])	AC50 viability (NCI-H295R [3])	area under concentration-response curve (CU-ACC1 [4])	area under concentration-response curve (CU-ACC2 [5])	area under concentration-response curve (NCI-H295R [6])
CC(C)(C)c1cnc(CSc2cnc(NC(=O)C3CCNCC3)s2)o1	2.63 µM	1.48 µM	7.42 µM	386	352	387
c1ccc2c(CCNc3ccc(Nc4ccncc4)cc3)c[nH]c2c1	5.9 µM	10.5 µM	1.86 µM	363	374	400
CCN1CCN(Cc2ccc(-c3cc4c(N[C@H](C)c5ccccc5)ncnc4[nH]3)cc2)CC1	23.5 µM	23.5 µM	18.6 µM	452	534	492
CCc1ccc(OCc2ccccc2C(=O)Nc2ccc3nc(C)cc(N)c3c2)cc1	10.5 µM	6.61 µM	8.33 µM	342	513	482
C#Cc1cccc(Nc2ncnc3cc(OC)c(OCCCCCCC(=O)NO)cc23)c1	4.68 µM	2.95 µM	4.68 µM	407	450	448
OCCCNc1cc(-c2ccnc(Nc3cccc(Cl)c3)n2)ccn1	0.148 µM	0.0934 µM	0.263 µM	275	307	339
CN[C@@H]1C[C@H]2O[C@@](C)([C@@H]1OC)n1c3ccccc3c3c4c(c5c6ccccc6n2c5c31)C(=O)N[C@H]4O	0.762 µM	0.34 µM	0.959 µM	301	209	269
COc1cccc2c1C(=O)c1c(O)c3c(c(O)c1C2=O)C[C@@](O)(C(=O)CO)C[C@@H]3O[C@H]1C[C@H](N)[C@H](O[C@H]2CCCCO2)[C@H](C)O1	5.25 µM and 9.34 µM	6.61 µM	20.9 µM	230 and 410	168 and 501	435
COc1ccc(-c2cc3c(C)nc(N)nc3n([C@H]3CC[C@H](OCCO)CC3)c2=O)cn1	0.295 µM	0.59 µM	0.235 µM	425	446	435
CC(=O)O/N=C1\C(=O)N(Cc2cc(Cl)ccc2Cl)c2ccc(Cl)cc21	2.09 µM	7.42 µM	13.2 µM	448	382	504
COc1cc2nc(N3CCCN(C)CC3)nc(NC3CCN(Cc4ccccc4)CC3)c2cc1OC	13.2 µM	8.33 µM	9.34 µM	362	535	494
Cc1nc(Nc2ncc(C(=O)Nc3c(C)cccc3Cl)s2)cc(N2CCN(CCO)CC2)n1	29.5 µM	23.5 µM	23.5 µM	448	461	446
CCCCCCCCc1ccc(CCC(N)(CO)CO)cc1	10.5 µM	8.33 µM	11.8 µM	357	384	395
CNCc1ccc(C)c(NC(=O)c2ccc(Nc3nc(-c4ccccc4)c4ccccc4n3)cc2)c1	16.6 µM	23.5 µM	18.6 µM	471	575	521
CNC1CCC(N(Cc2cccc(-c3ccncc3)c2)C(=O)c2sc3c(F)ccc(F)c3c2Cl)CC1 (stereo unspecified)	8.33 µM	9.34 µM	9.34 µM	443	499	448
N#C/C(=C1/Nc2ccccc2S1)c1ccnc(OCc2ccc(CN3CCOCC3)cc2)n1	4.68 µM	18.6 µM	11.8 µM	434	426	429
CCC(=O)N1CCN(CC1)C2=C(C=C(C=C2)N3C(=O)\C=C/C4=C3C5=CC(=CC=C5N=C4)C6=CN=C7C=CC=CC7=C6)C(F)(F)F	0.0102 µM	0.0456 µM	0.129 µM	305	362	326
CC(C)[C@@H](N(CCCN)C(=O)C1=CC=C(C)C=C1)C/2=C(\CC3=CC=CC=C3)C(=O)C4=C(O2)C=C(Cl)C=C4	13.2 µM	26.3 µM	2.35 µM	448	565	359
Nc1ncccc1-c1nc2ccc(-c3ccccc3)nc2n1-c1ccc(C2(N)CCC2)cc1	8.33 µM	16.6 µM	5.9 µM	354	437	408
COc1cc2c(NC3CCN(CC4CCCCC4)CC3)nc(N3CCCN(C(C)C)CC3)nc2cc1OCCCN1CCCCC1	20.9 µM	10.5 µM	16.6 µM	426	485	449
